Assay results as given in ChEMBL document CHEMBL1125506, “Fluoronaphthyridines as antibacterial agents. 6. Synthesis and structure-activity relationships of new chiral 7-(1-, 3-, 4-, and 6-methyl-2,5-diazabicyclo[2.2.1]heptan-2-yl)naphthyridine analogues of 7-[(1R,4R)-2,5- diazabicyclo[2.2.1]heptan-2-yl]-1-(1,1-dimethylethyl)-6-fluoro-1,4-dihy …” (J Med Chem, 1992).
Converted amounts (≈) assume the structure as drawn.

What was measured:
[1] = tested on: Enterococcus faecalis; assay: In vitro antibacterial activity against Enterococcus faecalis A9809; type: functional
[2] = tested on: Mus musculus; assay: In vivo efficacy on systemic infections caused by Staphylococcus aureus A15090 in mice after intramuscular administration; type: functional; details: im, read-out: PD50
[3] = tested on: Mus musculus; assay: In vivo efficacy on systemic infections caused by Streptococcus pneumoniae A9585 in mice after peroral administration; type: functional; details: po, read-out: PD50
[4] = Solubility (water, 22C, pH 7.2); type: physicochemical; details: read-out: S
[5] = tested on: Klebsiella pneumoniae; assay: In vitro antibacterial activity against Klebsiella pneumoniae A9664; type: functional
[6] = tested on: Streptococcus pneumoniae; assay: In vitro antibacterial activity against Streptococcus pneumoniae A9585.; type: functional
[7] = tested on: Mus musculus; assay: In vivo efficacy on systemic infections caused by Pseudomonas aeruginosa A9843 after peroarl administration in mice; type: functional; details: read-out: PD50
[8] = Partition coefficient (logD); type: physicochemical; details: octanol/water
[9] = tested on: Enterobacter cloacae; assay: In vitro antibacterial activity against Enterobacter cloacae A9656; type: functional
[10] = tested on: Staphylococcus aureus; assay: In vitro antibacterial activity against Staphylococcus aureus A9537; type: functional
[11] = tested on: Mus musculus; assay: In vivo efficacy on systemic infections caused by Staphylococcus aureus A15090 in mice after peroral administration; type: functional; details: po, read-out: PD50
[12] = tested on: Serratia marcescens; assay: In vitro antibacterial activity against Serratia marcescens A20019; type: functional
[13] = tested on: Proteus mirabilis; assay: In vitro antibacterial activity against Proteus mirabilis A9900; type: functional
[14] = tested on: Escherichia coli; assay: In vitro antibacterial activity against Escherichia coli A15119; type: functional
[15] = tested on: Mus musculus; assay: In vivo efficacy on systemic infections caused by Streptococcus pneumoniae A9585 in mice after intramuscular administration; type: functional; details: im, read-out: PD50
[16] = tested on: Bacteroides fragilis; assay: In vitro antibacterial activity against Bacteroides fragilis A-22,862; type: functional
[17] = tested on: Mus musculus; assay: In vivo efficacy on systemic infections caused by Pseudomonas aeruginosa A9843 in mice after intramuscular administration; type: functional; details: im, read-out: PD50
[18] = tested on: Morganella morganii; assay: In vitro antibacterial activity against Morganella morganii A15153; type: functional
[19] = tested on: Pseudomonas aeruginosa; assay: In vitro antibacterial activity against Pseudomonas aeruginosa A9843; type: functional
[20] = Peak concentration in blood after intravenous administration to mice; type: ADME, organism-based; set-up: route intravenous; details: mouse
[21] = Peak concentration in blood after peroral administration to mice; type: ADME, organism-based; set-up: route oral; details: mouse, po
[22] = tested on: Mus musculus; assay: In vivo efficacy on systemic infections caused by Escherichia coli A15119 in mice after intramuscular administration; type: functional; details: im, read-out: PD50
[23] = tested on: Mus musculus; assay: In vivo efficacy on systemic infections caused by Pseudomonas aeruginosa A9843 in mice after peroral administration; type: functional; details: po, read-out: PD50
[24] = Percent urinary recovery in 24 hr after peroral administration to mice; type: ADME, organism-based; details: mouse, urine, po; read-out: UR
[25] = tested on: Mus musculus; assay: percent urinary recovery in 24 hr after intravenous administration to mice; type: functional, Urine
[26] = tested on: Mus musculus; assay: In vivo efficacy on systemic infections caused by Escherichia coli A15119 in mice after peroral administration; type: functional; details: po, read-out: PD50

Structure (SMILES)	MIC [1]	ED50 [2]	ED50 [3]	MIC [5]	MIC [6]	MIC [10]	ED50 [11]	MIC [12]	MIC [13]	ED50 [15]	MIC [16]	ED50 [17]	MIC [18]	other results
C[C@@H]1N[C@@H]2C[C@H]1N(c1nc3c(cc1F)c(=O)c(C(=O)O)cn3-c1ccc(F)cc1F)C2.Cl	1 µg/mL	1 mg/kg	> 50 mg/kg	0.13 µg/mL	1 µg/mL	0.06 µg/mL	1.4 mg/kg	0.25 µg/mL	0.5 µg/mL	> 50 mg/kg	4 µg/mL	2.4 mg/kg	0.5 µg/mL	solubility [4]: 15 µg/mL; ED50 [7]: 3.1 mg/kg; logD [8]: -0.14; MIC [9]: 0.13 µg/mL; MIC [14]: 0.03 µg/mL; MIC [19]: 1 µg/mL
O=C(O)c1cn(C2CC2)c2cc(N3CCNCC3)c(F)cc2c1=O [CIPROFLOXACIN]	0.5 µg/mL (≈ 1.51 µM)	3.9 mg/kg	> 50 mg/kg	0.06 µg/mL (≈ 0.181 µM)	0.25 µg/mL (≈ 0.754 µM)	0.06 µg/mL (≈ 0.181 µM)	12.5 mg/kg	0.03 µg/mL (≈ 0.0905 µM)	0.008 µg/mL (≈ 0.0241 µM)	28.7 mg/kg	1 µg/mL (≈ 3.02 µM)	1.3 mg/kg	0.008 µg/mL (≈ 0.0241 µM)	Cmax [20]: 22000 ng/mL; Cmax [21]: 6000 ng/mL; ED50 [22]: 0.05 mg/kg; ED50 [23]: 2.6 mg/kg; dose excreted at 24 h [24]: 30%; UR [25]: 25%; ED50 [26]: 1.4 mg/kg
